Where “and” joins values, the source holds several entries; their conditions need not be identical. Equal values may be shown once. Inconclusive results and toxic doses are left out.
Test system: P388 leukemia ip, CD2F1 mice, survival T/C
Assay: NCI In Vivo Anticancer Drug Screen. Data for tumor model P388 Leukemia (intraperitoneal) in CD2F1 (CDF1) mice
Conditions: endpoint: median survival time, higher = longer survival
How it was run: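 Mice carrying the transplanted tumor received test compound or vehicle. Survival was recorded in each group, and the value is the treated-group measurement divided by that of the vehicle-treated control group.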

[1] = dose: 60.0 mg/kg/injection, schedule: Q01DX005 (ip), vehicle: saline
[2] = dose: 120.0 mg/kg/injection, schedule: Q01DX005 (ip), vehicle: saline
[3] = dose: 60.0 mg/kg/injection, schedule: Q01DX005 (ip), vehicle: saline with Tween-80
[4] = dose: 120.0 mg/kg/injection, schedule: Q01DX005 (ip), vehicle: saline with Tween-80
[5] = dose: 240.0 mg/kg/injection, schedule: Q01DX005 (ip), vehicle: saline with Tween-80
[6] = dose: 12.5 mg/kg/injection, schedule: Q01DX005 (ip), vehicle: saline with Tween-80
[7] = dose: 25.0 mg/kg/injection, schedule: Q01DX005 (ip), vehicle: saline with Tween-80
[8] = dose: 50.0 mg/kg/injection, schedule: Q01DX005 (ip), vehicle: saline with Tween-80
[9] = dose: 200.0 mg/kg/injection, schedule: Q01DX005 (ip), vehicle: saline with Tween-80
[10] = dose: 25.0 mg/kg/injection, schedule: Q01DX009 (ip), vehicle: saline with Tween-80
[11] = dose: 50.0 mg/kg/injection, schedule: Q01DX009 (ip), vehicle: saline with Tween-80
[12] = dose: 100.0 mg/kg/injection, schedule: Q01DX009 (ip), vehicle: saline with Tween-80
[13] = dose: 200.0 mg/kg/injection, schedule: Q01DX009 (ip), vehicle: saline
[14] = dose: 50.0 mg/kg/injection, schedule: Q01DX005 (ip), vehicle: Klucel (hydroxypropylcellulose) (HPC)
[15] = dose: 100.0 mg/kg/injection, schedule: Q01DX005 (ip), vehicle: Klucel (hydroxypropylcellulose) (HPC)
[16] = dose: 200.0 mg/kg/injection, schedule: Q01DX005 (ip), vehicle: Klucel (hydroxypropylcellulose) (HPC)
[17] = dose: 60.0 mg/kg/injection, schedule: Q01DX005 (ip), vehicle: Klucel (hydroxypropylcellulose) (HPC)
[18] = dose: 120.0 mg/kg/injection, schedule: Q01DX005 (ip), vehicle: Klucel (hydroxypropylcellulose) (HPC)
[19] = dose: 240.0 mg/kg/injection, schedule: Q01DX005 (ip), vehicle: Klucel (hydroxypropylcellulose) (HPC)
[20] = dose: 200.0 mg/kg/injection, schedule: Q01DX009 (ip), vehicle: saline with Tween-80
[21] = dose: 100.0 mg/kg/injection, schedule: Q04DX002 (ip), vehicle: saline with Tween-80
[22] = dose: 200.0 mg/kg/injection, schedule: Q04DX002 (ip), vehicle: saline with Tween-80

## NC(=O)c1cnc2nc1NCCCCCCC2
dose: 100.0 mg/kg/injection, schedule: Q04DX002 (ip), vehicle: Klucel (hydroxypropylcellulose) (HPC)
  T/C: 100 % of control
dose: 200.0 mg/kg/injection, schedule: Q04DX002 (ip), vehicle: Klucel (hydroxypropylcellulose) (HPC)
  T/C: 98 % of control
dose: 400.0 mg/kg/injection, schedule: Q04DX002 (ip), vehicle: Klucel (hydroxypropylcellulose) (HPC)
  T/C: 90 % of control

## O=C1N(CO)C2C(N1CO)N(CO)C(=O)N2CO (stereo unspecified)
dose: 100.0 mg/kg/injection, schedule: Q04DX003 (ip), vehicle: saline
  T/C: 109 % of control
dose: 200.0 mg/kg/injection, schedule: Q04DX003 (ip), vehicle: saline
  T/C: 118 % of control
dose: 400.0 mg/kg/injection, schedule: Q04DX003 (ip), vehicle: saline
  T/C: 118 % of control

## CCCc1c(-c2ccccc2)nc(N)nc1-c1nc(N)nc(-c2ccccc2)c1CCC
[1]
  T/C: 100 % of control
[2]
  T/C: 95 % of control

## CC1(C)NC(=O)[C@]2(C[C@@H](O)C=C2CO)O1
dose: 25.0 mg/kg/injection, schedule: Q01DX005 (ip), vehicle: saline
  T/C: 94 % of control
dose: 50.0 mg/kg/injection, schedule: Q01DX005 (ip), vehicle: saline
  T/C: 99 % of control
dose: 100.0 mg/kg/injection, schedule: Q01DX005 (ip), vehicle: saline
  T/C: 93 % of control

## COC(=O)c1cc(-c2ccccc2Cl)n2c(N)nnc2n1
[3]
  T/C: 118 % of control
[4]
  T/C: 105 % of control
[5]
  T/C: 101 % of control

## CC(=O)OC1C(=O)C2(C)C(O)CC3OCC3(OC(C)=O)C2C(OC(=O)c2ccccc2)C2(O)CC(OC(=O)C(O)C(NC(=O)c3ccccc3)c3ccccc3)C(C)=C1C2(C)C (stereo unspecified)
dose: 2.5 mg/kg/injection, schedule: Q01DX005 (ip), vehicle: DMSO
  T/C: 106 % of control
dose: 5.0 mg/kg/injection, schedule: Q01DX005 (ip), vehicle: DMSO
  T/C: 121 % of control
dose: 20.0 mg/kg/injection, schedule: Q01DX005 (ip), vehicle: DMSO
  T/C: 167 % of control

## CCC(CC)(C(=O)Nc1ccc2nc(C)cc(N)c2c1)C(=O)Nc1ccc2nc(C)cc(N)c2c1
[6]
  T/C: 102 % of control
[7]
  T/C: 90 % of control
[8]
  T/C: 87 % of control and 93 % of control
[9]
  T/C: 93 % of control

## C1=CC2OC2CCCCCCCC1 (mixture of isomers)
[10]
  T/C: 106 % of control
[11]
  T/C: 107 % of control
[12]
  T/C: 109 % of control

## CCCCCCCCCCCC1(O)OC(=O)C(C)=C1C (stereo unspecified)
dose: 12.5 mg/kg/injection, schedule: Q04DX003 (ip), vehicle: saline with Tween-80
  T/C: 101 % of control
dose: 25.0 mg/kg/injection, schedule: Q04DX003 (ip), vehicle: saline with Tween-80
  T/C: 108 % of control
dose: 50.0 mg/kg/injection, schedule: Q04DX003 (ip), vehicle: saline with Tween-80
  T/C: 103 % of control

## O=C(N/N=C/c1cccc(C(F)(F)F)c1)c1ccncc1
[3]
  T/C: 103 % of control
[4]
  T/C: 97 % of control
[5]
  T/C: 90 % of control

## CC(=O)OCNCOC(C)=O
dose: 100.0 mg/kg/injection, schedule: Q01DX009 (ip), vehicle: saline
  T/C: 106 % of control
[13]
  T/C: 108 % of control
dose: 400.0 mg/kg/injection, schedule: Q01DX009 (ip), vehicle: saline
  T/C: 106 % of control

## CCOC(=O)C(/C=N\c1[nH]ncc1C#N)=C(/C(=O)OCC)c1ccc(O)cc1
[14]
  T/C: 110 % of control
[15]
  T/C: 105 % of control
[16]
  T/C: 105 % of control

## Cc1ccc2c(c1)Pc1cc(C)ccc1S2
[17]
  T/C: 109 % of control
[18]
  T/C: 101 % of control
[19]
  T/C: 104 % of control

## C[N+]1=C(c2ccc(Br)cc2)OCC1(C)C
dose: 25.0 mg/kg/injection, schedule: Q01DX009 (ip), vehicle: other
  T/C: 104 % of control
dose: 50.0 mg/kg/injection, schedule: Q01DX009 (ip), vehicle: other
  T/C: 101 % of control
dose: 100.0 mg/kg/injection, schedule: Q01DX009 (ip), vehicle: other
  T/C: 97 % of control
dose: 200.0 mg/kg/injection, schedule: Q01DX009 (ip), vehicle: other
  T/C: 101 % of control
dose: 400.0 mg/kg/injection, schedule: Q01DX009 (ip), vehicle: other
  T/C: 101 % of control

## CCOC(=O)N/C=C/C(C)=O
[3]
  T/C: 98 % of control
[4]
  T/C: 100 % of control
[5]
  T/C: 106 % of control

## CCc1ccc2c(c1)C(O)(c1ccccc1)c1ccccc1C2(O)c1ccccc1 (stereo unspecified)
[11]
  T/C: 95 % of control
[12]
  T/C: 94 % of control
[20]
  T/C: 93 % of control

## C[n+]1cccc2c1C(=O)C(=O)c1c-2ccc[n+]1C
[21]
  T/C: 120 % of control
[22]
  T/C: 105 % of control

## CCOC(=O)C1C(=O)N2C(=O)C(NC(C)=O)=C(O)C2C1c1ccc(Cl)cc1 (stereo unspecified)
[21]
  T/C: 100 % of control
[22]
  T/C: 105 % of control
dose: 400.0 mg/kg/injection, schedule: Q04DX002 (ip), vehicle: saline with Tween-80
  T/C: 98 % of control

## CCOC(=O)c1ccc(NC(=O)Nc2cccc3c(O)cccc23)cc1
[17]
  T/C: 89 % of control
[18]
  T/C: 96 % of control
[19]
  T/C: 88 % of control

## c1ccc(-c2ccc[n+](C[n+]3cccc(-c4ccccn4)c3)c2)nc1
[1]
  T/C: 109 % of control
[2]
  T/C: 104 % of control
dose: 240.0 mg/kg/injection, schedule: Q01DX005 (ip), vehicle: saline
  T/C: 106 % of control

## COC(=O)OC(C#N)c1ccccc1[N+](=O)[O-] (stereo unspecified)
dose: 1.56 mg/kg/injection, schedule: Q01DX009 (ip), vehicle: saline
  T/C: 88 % of control
dose: 3.12 mg/kg/injection, schedule: Q01DX009 (ip), vehicle: saline
  T/C: 98 % of control
dose: 6.25 mg/kg/injection, schedule: Q01DX009 (ip), vehicle: saline
  T/C: 105 % of control
dose: 6.25 mg/kg/injection, schedule: Q01DX009 (ip), vehicle: suspension in saline
  T/C: 88 % of control
[13]
  T/C: 94 % of control

## CN(C)c1ccc(N=Nc2ccc3c4c(cccc24)-c2ccccc2-3)cc1
[11]
  T/C: 104 % of control
[12]
  T/C: 96 % of control
[20]
  T/C: 115 % of control

## CC(=O)N(CC(=O)Nc1ccc(S(N)(=O)=O)cc1)C(C)C
dose: 50.0 mg/kg/injection, schedule: Q01DX009 (ip), vehicle: Klucel (hydroxypropylcellulose) (HPC)
  T/C: 100 % of control
dose: 100.0 mg/kg/injection, schedule: Q01DX009 (ip), vehicle: Klucel (hydroxypropylcellulose) (HPC)
  T/C: 99 % of control
dose: 200.0 mg/kg/injection, schedule: Q01DX009 (ip), vehicle: Klucel (hydroxypropylcellulose) (HPC)
  T/C: 92 % of control

## COC(=O)C1=C(OC(C)=O)c2ccccc2CS1
dose: 50.0 mg/kg/injection, schedule: Q01DX001 (ip), vehicle: Klucel (hydroxypropylcellulose) (HPC)
  T/C: 98 % of control
dose: 100.0 mg/kg/injection, schedule: Q01DX001 (ip), vehicle: Klucel (hydroxypropylcellulose) (HPC)
  T/C: 92 % of control
dose: 200.0 mg/kg/injection, schedule: Q01DX001 (ip), vehicle: Klucel (hydroxypropylcellulose) (HPC)
  T/C: 96 % of control

## Cc1ccc(S(=O)(=O)N/N=C2/C(=O)NC(=O)C(=O)C2c2nc3ccccc3s2)cc1 (stereo unspecified)
[3]
  T/C: 98 % of control
[4]
  T/C: 92 % of control
[5]
  T/C: 100 % of control

## CCOC(=O)C(C(=O)OCC)=C(N)C(Cl)(Cl)Cl
dose: 25.0 mg/kg/injection, schedule: Q01DX005 (ip), vehicle: Klucel (hydroxypropylcellulose) (HPC)
  T/C: 116 % of control
[14]
  T/C: 117 % of control
[15]
  T/C: 111 % of control
[16]
  T/C: 110 % of control

## C#CC(C)(C)NC(=O)c1cccnc1Oc1ccccc1
[8]
  T/C: 99 % of control
dose: 100.0 mg/kg/injection, schedule: Q01DX005 (ip), vehicle: saline with Tween-80
  T/C: 97 % of control
[9]
  T/C: 99 % of control

## NNC(=O)C(=O)NCc1ccco1
dose: 12.5 mg/kg/injection, schedule: Q01DX009 (ip), vehicle: saline with Tween-80
  T/C: 88 % of control
[10]
  T/C: 98 % of control
[11]
  T/C: 95 % of control

## CC(C)(C)/C=C/N1CCN=N1
[6]
  T/C: 100 % of control
[7]
  T/C: 104 % of control
[8]
  T/C: 102 % of control and 109 % of control
